# Data reported in patent US8637509B2, “Azaindazoles” (GlaxoSmithKline LLC, priority 2010, dated 2014).
# Biological target: T1, EZH2 (Homo sapiens, UniProt Q15910)
# T1 construct: GRITS37108
# Experiment: EZH2 methyltransferase SPA assay (3H-SAM, Hela nucleosomes)
# Type: biochemical
# Settings: read-out: IC50
# Method: • 1. […] Prepare 500 μM SAH quench solution in ddH20 with 5-10 drops of concentrated HCl to dissolve. • 5. Prepare 6 mg/ml RNA binding SPA beads (Perkin Elmer) suspended in 0.2 M Citric Acid, pH 2.2
# Part C. […] Dispense 5 μL no enzyme control (assay buffer mix) to column 18 of plates. • 2. Dispense 5 μL of enzyme mix to the remaining wells in the plate. Centrifuge plate to mix and incubate at room temperature for 30 minutes. • 3. Dispense 5 μL of substrate mix to all wells to initiate the reactions. Centrifuge plate to mix and incubate at room temperature for 2 hours. • 4. […] Dispense 10 μL of 6 mg/ml RNA binding SPA beads prepared in 0.2 M citric acid, pH 2.2 using the Evolution instrument. Continuously shake the beads while adding to plates to prevent beads from settling. • 6. Seal the plates with Perkin Elmer top seals and allow the beads to equilibrate in the plate for at least 30 minutes at room temperature. • 7. […] Read plates in Microbeta after at least 5 hours incubation. Plates can be read immediately, but signal increases over time.
# Reagent addition can be done manually or with automated liquid handler.
# *The final DMSO concentration in this assay is 1%.
# *The positive control is in column 6; negative control is in column 18.
# T1 sequence (Q15910 whole entry): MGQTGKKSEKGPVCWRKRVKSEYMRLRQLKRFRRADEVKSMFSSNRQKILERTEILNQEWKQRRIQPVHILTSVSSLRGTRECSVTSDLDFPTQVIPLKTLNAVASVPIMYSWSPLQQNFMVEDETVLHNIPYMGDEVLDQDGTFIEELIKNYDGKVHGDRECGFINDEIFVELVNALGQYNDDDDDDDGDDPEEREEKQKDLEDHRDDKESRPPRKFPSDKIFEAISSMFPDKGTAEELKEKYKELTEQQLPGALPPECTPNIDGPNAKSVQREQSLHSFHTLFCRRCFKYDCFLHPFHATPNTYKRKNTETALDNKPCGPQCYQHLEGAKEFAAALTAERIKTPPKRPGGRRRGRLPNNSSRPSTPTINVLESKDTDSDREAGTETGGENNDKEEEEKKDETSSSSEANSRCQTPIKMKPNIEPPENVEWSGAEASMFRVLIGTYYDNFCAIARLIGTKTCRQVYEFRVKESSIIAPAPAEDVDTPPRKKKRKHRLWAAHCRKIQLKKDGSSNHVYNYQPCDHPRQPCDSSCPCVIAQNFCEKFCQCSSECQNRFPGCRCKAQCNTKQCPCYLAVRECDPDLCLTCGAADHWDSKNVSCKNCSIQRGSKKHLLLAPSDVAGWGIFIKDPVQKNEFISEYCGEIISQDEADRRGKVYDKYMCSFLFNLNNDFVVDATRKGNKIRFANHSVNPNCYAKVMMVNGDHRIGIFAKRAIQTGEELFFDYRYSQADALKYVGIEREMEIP
# T1 sequence (O75530 whole entry partner): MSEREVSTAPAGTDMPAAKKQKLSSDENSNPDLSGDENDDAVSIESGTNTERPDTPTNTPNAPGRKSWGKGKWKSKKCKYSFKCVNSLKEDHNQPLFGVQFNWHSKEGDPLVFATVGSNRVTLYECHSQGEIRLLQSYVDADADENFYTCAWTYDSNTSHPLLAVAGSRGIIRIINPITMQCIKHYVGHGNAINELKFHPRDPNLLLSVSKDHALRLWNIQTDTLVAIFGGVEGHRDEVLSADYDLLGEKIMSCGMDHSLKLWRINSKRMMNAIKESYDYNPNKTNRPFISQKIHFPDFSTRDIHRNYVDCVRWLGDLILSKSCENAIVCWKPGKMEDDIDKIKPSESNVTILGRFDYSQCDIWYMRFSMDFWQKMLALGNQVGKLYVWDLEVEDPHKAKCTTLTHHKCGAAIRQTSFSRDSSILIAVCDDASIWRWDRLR
# T1 sequence (Q15022 whole entry partner): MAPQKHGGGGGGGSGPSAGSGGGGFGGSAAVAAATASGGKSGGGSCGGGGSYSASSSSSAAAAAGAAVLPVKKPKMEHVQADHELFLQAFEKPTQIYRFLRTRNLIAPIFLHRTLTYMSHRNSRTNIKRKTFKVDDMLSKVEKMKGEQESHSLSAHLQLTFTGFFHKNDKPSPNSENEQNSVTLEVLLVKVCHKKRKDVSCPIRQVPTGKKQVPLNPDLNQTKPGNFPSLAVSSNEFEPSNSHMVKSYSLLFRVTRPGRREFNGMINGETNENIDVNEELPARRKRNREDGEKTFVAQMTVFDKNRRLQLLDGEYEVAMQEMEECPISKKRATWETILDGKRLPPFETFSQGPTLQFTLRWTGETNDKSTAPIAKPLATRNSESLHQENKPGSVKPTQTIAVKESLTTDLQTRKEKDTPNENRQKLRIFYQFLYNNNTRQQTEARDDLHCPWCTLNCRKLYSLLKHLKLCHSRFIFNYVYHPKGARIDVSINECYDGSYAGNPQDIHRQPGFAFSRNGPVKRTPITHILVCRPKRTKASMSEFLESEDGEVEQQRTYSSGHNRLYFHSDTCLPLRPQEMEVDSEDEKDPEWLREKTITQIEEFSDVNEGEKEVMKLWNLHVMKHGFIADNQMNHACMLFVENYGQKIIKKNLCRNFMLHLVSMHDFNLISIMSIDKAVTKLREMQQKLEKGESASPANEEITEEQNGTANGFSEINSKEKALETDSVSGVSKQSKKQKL
row,IC50 [nM],Structure (SMILES)
1,116,"Cc1cc(C)c(CNC(=O)c2cc(Oc3ccncc3)nc3c2cnn3C(C)C)c(=O)[nH]1 [Ex 4, N-[(4,6-Dimethyl-2-oxo-1,2-dihydro-3-pyridinyl)methyl]-1-(1-methylethyl)-6-(4-pyridinyloxy)-1H-pyrazolo[3,4-b]pyridine-4-carboxamide]"
2,315,"Cc1cc(C)c(CNC(=O)c2cc(C3CC3)nc3c2c(C)nn3C2CCC2)c(=O)[nH]1 [Ex 105, 1-Cyclobutyl-6-cyclopropyl-N-[(4,6-dimethyl-2-oxo-1,2-dihydro-3-pyridinyl)methyl]-3-methyl-1H-pyrazolo[3,4-b]pyridine-4-carboxamide]"
3,71,"Cc1cc(C)c(CNC(=O)c2cc(-c3ccc4[nH]c(=O)[nH]c4c3)nc3c2cnn3C(C)C)c(=O)[nH]1 [Ex 80, N-[(4,6-Dimethyl-2-oxo-1,2-dihydro-3-pyridinyl)methyl]-1-(1-methylethyl)-6-(2-oxo-2,3-dihydro-1H-benzimidazol-5-yl)-1H-pyrazolo[3,4-b]pyridine-4-carboxamide]"
4,190,"Cc1cc(C)c(CNC(=O)c2cc(-c3ccncc3)nc3c2c(C)nn3C(C)C)c(=O)[nH]1 [Ex 117, N-[(4,6-Dimethyl-2-oxo-1,2-dihydro-3-pyridinyl)methyl]-3-methyl-1-(1-methylethyl)-6-(4-pyridinyl)-1H-pyrazolo[3,4-b]pyridine-4-carboxamide]"
5,333,"Cc1cc(C)c(CNC(=O)c2cc(-c3ccc(S(C)(=O)=O)cc3)nc3c2cnn3C(C)C)c(=O)[nH]1 [Ex 119, N-[(4,6-Dimethyl-2-oxo-1,2-dihydro-3-pyridinyl)methyl]-1-(1-methylethyl)-6-[4-(methylsulfonyl)phenyl]-1H-pyrazolo[3,4-b]pyridine-4-carboxamide]"
6,248,"Cc1cc(C)c(CNC(=O)c2cc(-c3cccc(N)c3)nc3c2cnn3C(C)C)c(=O)[nH]1 [Ex 45, 6-(3-aminophenyl)-N-[(4,6-dimethyl-2-oxo-1,2-dihydro-3-pyridinyl)methyl]-1-(1-methylethyl)-1H-pyrazolo[3,4-b]pyridine-4-carboxamide]"
7,1430,"Cc1cc(C(F)(F)F)c(CNC(=O)c2cc(C3CC3)nc3c2cnn3C(C)C)c(=O)[nH]1 [Ex 23, 6-Cyclopropyl-1-(1-methylethyl)-N-{[6-methyl-2-oxo-4-(trifluoromethyl)-1,2-dihydro-3-pyridinyl]methyl}-1H-pyrazolo[3,4-b]pyridine-4-carboxamide]"
8,198,"Cc1cc(C)c(CNC(=O)c2cc(-c3c[nH]c(=O)[nH]c3=O)nc3c2cnn3C(C)C)c(=O)[nH]1 [Ex 48, N-[(4,6-Dimethyl-2-oxo-1,2-dihydro-3-pyridinyl)methyl]-6-(2,4-dioxo-1,2,3,4-tetrahydro-5-pyrimidinyl)-1-(1-methylethyl)-1H-pyrazolo[3,4-b]pyridine-4-carboxamide]"
9,2590,"Cc1cc(-c2ccccc2)c(CNC(=O)c2cc(C3CC3)nc3c2cnn3C(C)C)c(=O)[nH]1 [Ex 17, 6-Cyclopropyl-1-(1-methylethyl)-N-[(6-methyl-2-oxo-4-phenyl-1,2-dihydro-3-pyridinyl)methyl]-1H-pyrazolo[3,4-b]pyridine-4-carboxamide]"
10,204,"Cc1cc(C)c(CNC(=O)c2cc(-c3ccc(N)cc3)nc3c2cnn3C(C)C)c(=O)[nH]1 [Ex 43, 6-(4-Aminophenyl)-N-[(4,6-dimethyl-2-oxo-1,2-dihydro-3-pyridinyl)methyl]-1-(1-methylethyl)-1H-pyrazolo[3,4-b]pyridine-4-carboxamide]"
11,402,"Cc1cc(C)c(CNC(=O)c2cc(-c3cn[nH]c3)nc3c2cnn3C(C)C)c(=O)[nH]1 [Ex 71, N-[(4,6-Dimethyl-2-oxo-1,2-dihydro-3-pyridinyl)methyl]-1-(1-methylethyl)-6-(1H-pyrazol-4-yl)-1H-pyrazolo[3,4-b]pyridine-4-carboxamide]"
12,806,"Cc1cc(C)c(CNC(=O)c2cc(Cl)nc3c2c(C)nn3C(C)C)c(=O)[nH]1 [Ex 2, 6-Chloro-N-[(4,6-dimethyl-2-oxo-1,2-dihydro-3-pyridinyl)methyl]-3-methyl-1-(1-methylethyl)-1H-pyrazolo[3,4-b]pyridine-4-carboxamide]"
13,784,"Cc1cc(C)c(CNC(=O)c2cc(NCCO)nc3c2cnn3C(C)C)c(=O)[nH]1 [Ex 57, N-[(4,6-Dimethyl-2-oxo-1,2-dihydro-3-pyridinyl)methyl]-6-[(2-hydroxyethyl)amino]-1-(1-methylethyl)-1H-pyrazolo[3,4-b]pyridine-4-carboxamide]"
